Laboratory results reported in ChEMBL document CHEMBL1155042, “Carbamates with differential mechanism of inhibition toward acetylcholinesterase and butyrylcholinesterase” (J Med Chem, 2008).
Calls of active or inactive are those of the source. No cut-off for these calls is given here.

Columns and labels:
[1] = biological target: T1, Cholinesterase (Homo sapiens, UniProt P06276); experiment: Inhibition of human serum BchE by Ellman's assay
[2] = biological target: Acetylcholinesterase (Homo sapiens) (UniProt P22303)
Description: Inhibition of human recombinant AchE by Ellman's assay

[3] = biological target: T1, Cholinesterase; experiment: Inhibition of human serum BchE at 73.3 uM by Ellman's assay
[4] = biological target: T1, Cholinesterase; experiment: Inhibition of human serum BchE at 23.6 uM by Ellman's assay
[5] = biological target: T1, Cholinesterase; experiment: Deactivation of human wild type recombinant BchE assessed as residual enzyme activity at 2.1 uM after 5 mins
[6] = biological target: T1, Cholinesterase; experiment: Deactivation of human wild type recombinant BchE assessed as residual enzyme activity at 2.1 uM after 10 mins
[7] = biological target: T1, Cholinesterase; experiment: Deactivation of human wild type recombinant BchE assessed as residual enzyme activity at 2.1 uM after 15 mins
[8] = biological target: T1, Cholinesterase; experiment: Deactivation of human BchE D70G mutant assessed as residual enzyme activity at 2.1 uM after 5 mins
[9] = biological target: T1, Cholinesterase; experiment: Deactivation of human BchE D70G mutant assessed as residual enzyme activity at 2.1 uM after 10 mins
[10] = biological target: T1, Cholinesterase; experiment: Deactivation of human BchE D70G mutant assessed as residual enzyme activity at 2.1 uM after 15 mins
[11] = biological target: T1, Cholinesterase; experiment: Deactivation of human BchE A539T mutant assessed as residual enzyme activity at 2.1 uM after 5 mins
[12] = biological target: T1, Cholinesterase; experiment: Deactivation of human BchE A539T mutant assessed as residual enzyme activity at 2.1 uM after 10 mins
[13] = biological target: T1, Cholinesterase; experiment: Deactivation of human BchE A539T mutant assessed as residual enzyme activity at 2.1 uM after 15 mins
[14] = biological target: T1, Cholinesterase; experiment: Deactivation of human BchE Y332A mutant assessed as residual enzyme activity at 2.1 uM after 5 mins
[15] = biological target: T1, Cholinesterase; experiment: Deactivation of human BchE Y332A mutant assessed as residual enzyme activity at 2.1 uM after 10 mins
[16] = biological target: T1, Cholinesterase; experiment: Deactivation of human BchE Y332A mutant assessed as residual enzyme activity at 2.1 uM after 15 mins
[17] = biological target: T1, Cholinesterase; experiment: Deactivation of human BchE A328Y mutant assessed as residual enzyme activity at 2.1 uM after 5 mins
[18] = biological target: T1, Cholinesterase; experiment: Deactivation of human BchE A328Y mutant assessed as residual enzyme activity at 2.1 uM after 10 mins
[19] = biological target: T1, Cholinesterase; experiment: Deactivation of human BchE A328Y mutant assessed as residual enzyme activity at 2.1 uM after 15 mins
[20] = biological target: T1, Cholinesterase; experiment: Deactivation of human BchE A328F mutant assessed as residual enzyme activity at 2.1 uM after 5 mins
[21] = biological target: T1, Cholinesterase; experiment: Deactivation of human BchE A328F mutant assessed as residual enzyme activity at 2.1 uM after 10 mins
[22] = biological target: T1, Cholinesterase; experiment: Deactivation of human BchE A328F mutant assessed as residual enzyme activity at 2.1 uM after 15 mins
[23] = biological target: T1, Cholinesterase; experiment: Deactivation of human BchE A328W mutant assessed as residual enzyme activity at 2.1 uM after 5 mins
[24] = biological target: T1, Cholinesterase; experiment: Deactivation of human BchE A328W mutant assessed as residual enzyme activity at 2.1 uM after 10 mins
[25] = biological target: T1, Cholinesterase; experiment: Deactivation of human BchE A328W mutant assessed as residual enzyme activity at 2.1 uM after 15 mins
[26] = biological target: T1, Cholinesterase; experiment: Deactivation of human BchE F329S mutant assessed as residual enzyme activity at 2.1 uM after 5 mins
[27] = biological target: T1, Cholinesterase; experiment: Deactivation of human BchE F329S mutant assessed as residual enzyme activity at 2.1 uM after 10 mins
[28] = biological target: T1, Cholinesterase; experiment: Deactivation of human BchE F329S mutant assessed as residual enzyme activity at 2.1 uM after 15 mins
[29] = biological target: T1, Cholinesterase; experiment: Deactivation of human BchE F329A mutant assessed as residual enzyme activity at 2.1 uM after 5 mins
[30] = biological target: T1, Cholinesterase; experiment: Deactivation of human BchE F329A mutant assessed as residual enzyme activity at 2.1 uM after 10 mins
[31] = biological target: T1, Cholinesterase; experiment: Deactivation of human BchE F329A mutant assessed as residual enzyme activity at 2.1 uM after 15 mins

T1 sequence (P06276 whole entry): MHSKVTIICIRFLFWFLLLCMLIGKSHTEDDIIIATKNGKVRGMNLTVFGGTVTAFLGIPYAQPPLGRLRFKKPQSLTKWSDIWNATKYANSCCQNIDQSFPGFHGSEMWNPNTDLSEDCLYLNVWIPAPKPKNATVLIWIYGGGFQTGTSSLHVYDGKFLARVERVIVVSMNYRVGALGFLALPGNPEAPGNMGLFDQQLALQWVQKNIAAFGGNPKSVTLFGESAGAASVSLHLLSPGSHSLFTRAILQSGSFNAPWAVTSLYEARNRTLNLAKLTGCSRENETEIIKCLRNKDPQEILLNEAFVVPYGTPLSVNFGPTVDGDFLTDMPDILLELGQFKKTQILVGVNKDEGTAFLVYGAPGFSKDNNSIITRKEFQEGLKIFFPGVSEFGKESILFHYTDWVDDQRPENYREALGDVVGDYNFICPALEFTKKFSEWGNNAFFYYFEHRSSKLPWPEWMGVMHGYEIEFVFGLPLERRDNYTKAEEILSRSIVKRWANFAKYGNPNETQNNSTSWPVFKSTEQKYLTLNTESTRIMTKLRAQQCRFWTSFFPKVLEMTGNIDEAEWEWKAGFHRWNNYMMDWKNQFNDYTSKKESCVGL
Acetylcholinesterase (Homo sapiens), sequence (P22303 whole entry): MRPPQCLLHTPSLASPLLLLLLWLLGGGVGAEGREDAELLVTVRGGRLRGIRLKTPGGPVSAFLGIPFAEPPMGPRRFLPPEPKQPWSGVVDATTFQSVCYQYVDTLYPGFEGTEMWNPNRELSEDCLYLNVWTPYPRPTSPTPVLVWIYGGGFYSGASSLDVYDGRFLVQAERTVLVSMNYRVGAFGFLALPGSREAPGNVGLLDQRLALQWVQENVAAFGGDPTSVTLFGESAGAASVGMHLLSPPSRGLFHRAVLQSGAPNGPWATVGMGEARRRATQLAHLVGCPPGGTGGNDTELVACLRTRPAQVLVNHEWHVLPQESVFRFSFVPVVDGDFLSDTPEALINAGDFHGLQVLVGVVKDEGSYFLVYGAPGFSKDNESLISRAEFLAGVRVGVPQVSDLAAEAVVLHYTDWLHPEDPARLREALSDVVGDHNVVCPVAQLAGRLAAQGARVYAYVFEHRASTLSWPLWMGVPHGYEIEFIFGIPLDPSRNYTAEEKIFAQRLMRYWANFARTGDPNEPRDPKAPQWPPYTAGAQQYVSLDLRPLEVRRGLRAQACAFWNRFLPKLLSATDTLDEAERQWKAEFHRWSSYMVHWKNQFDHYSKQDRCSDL

## O=C(OC1CCCC1)N1c2ccccc2Sc2ccccc21
[1]
  Ki: 3190 nM
[2]
  Ka: 0.492 ×10³ /M/min

## Cc1cccc(OC(=O)N2c3ccccc3Sc3ccccc32)c1
[1]
  Ki: 1690 nM
[2]
  Ka: 7.49 ×10³ /M/min

## CCN(CC)CCCOC(=O)N1c2ccccc2Sc2ccccc21
[1]
  Ki: 740 nM
[2]
  Ka: 0.21 ×10³ /M/min

## O=C(OCCN1CCCCC1)N1c2ccccc2Sc2ccccc21
[1]
  Ki: 3200 nM
[2]
  Ka: 3 ×10³ /M/min

## CC(C)(C)c1ccc(OC(=O)N2c3ccccc3Sc3ccccc32)cc1
[3]
  Activity: inactive
[2]
  Ka: 0.63 ×10³ /M/min

## COC(=O)N1c2ccccc2Sc2ccccc21
[1]
  Ki: 10200 nM
[2]
  Ka: 0.426 ×10³ /M/min

## Cc1ccc(OC(=O)N2c3ccccc3Sc3ccccc32)cc1
[1]
  Ki: 2850 nM
[2]
  Ka: 92.6 ×10³ /M/min

## CCCOC(=O)N1c2ccccc2Sc2ccccc21
[1]
  Ki: 260000 nM
[2]
  Ka: 0.219 ×10³ /M/min

## O=C(Oc1ccc(Cl)cc1)N1c2ccccc2Sc2ccccc21
[1]
  Ki: 10500 nM
[2]
  Ka: 7.25 ×10³ /M/min

## CCN(CC)CCOC(=O)N1c2ccccc2Sc2ccccc21
[1]
  Ki: 610 nM
[2]
  Ka: 0.24 ×10³ /M/min

## CN(C)c1cccc(OC(=O)N2c3ccccc3Sc3ccccc32)c1
[1]
  Ki: 1910 nM
[2]
  Ka: 19200 ×10³ /M/min

## COc1ccc(OC(=O)N2c3ccccc3Sc3ccccc32)cc1
[1]
  Ki: 2260 nM
[2]
  Ka: 1.42 ×10³ /M/min

## O=C(Oc1cccc(Cl)c1)N1c2ccccc2Sc2ccccc21
[1]
  Ki: 570 nM
[2]
  Ka: 3.21 ×10³ /M/min

## COc1cccc(OC(=O)N2c3ccccc3Sc3ccccc32)c1
[1]
  Ki: 710 nM
[2]
  Ka: 89.4 ×10³ /M/min

## O=C(Oc1ccccc1Cl)N1c2ccccc2Sc2ccccc21
[1]
  Ki: 45400 nM
[2]
  Ka: 18.7 ×10³ /M/min

## O=C(Oc1ccc2ccccc2c1)N1c2ccccc2Sc2ccccc21
[1]
  Ki: 120 nM
[2]
  Ka: 11.2 ×10³ /M/min

## Cc1ccccc1OC(=O)N1c2ccccc2Sc2ccccc21
[1]
  Ki: 390 nM
[2]
  Ka: 547 ×10³ /M/min

## CC(C)OC(=O)N1c2ccccc2Sc2ccccc21
[1]
  Ki: 18100 nM
[2]
  Ka: 1.8 ×10³ /M/min

## CC(C)(C)OC(=O)N1c2ccccc2Sc2ccccc21
[1]
  Ki: 4300 nM
[2]
  Ka: 0.219 ×10³ /M/min

## O=C(Oc1ccccc1)N1c2ccccc2Sc2ccccc21
[1]
  Ki: 570 nM
[2]
  Ka: 46 ×10³ /M/min

## CC(C)(C)c1ccccc1OC(=O)N1c2ccccc2Sc2ccccc21
[1]
  Ki: 120 nM
[2]
  Ka: 0.011 ×10³ /M/min

## COc1ccccc1OC(=O)N1c2ccccc2Sc2ccccc21
[1]
  Ki: 340 nM
[2]
  Ka: 5.99 ×10³ /M/min

## CCOC(=O)N1c2ccccc2Sc2ccccc21
[1]
  Ki: 23400 nM
[2]
  Ka: 0.193 ×10³ /M/min

## O=C(OCCN1CCCC1)N1c2ccccc2Sc2ccccc21
[1]
  Ki: 650 nM
[2]
  Ka: 46 ×10³ /M/min

## CN(C)CCOC(=O)N1c2ccccc2Sc2ccccc21
[1]
  Ki: 2450 nM
[2]
  Ka: 0.546 ×10³ /M/min

## O=C(Oc1cccc2ccccc12)N1c2ccccc2Sc2ccccc21
[1]
  Ki: 36 nM
[2]
  Ka: 1650 ×10³ /M/min

## O=C(OCCN1CCOCC1)N1c2ccccc2Sc2ccccc21
[1]
  Ki: 2400 nM
[2]
  Ka: 0.12 ×10³ /M/min

## CCCCOC(=O)N1c2ccccc2Sc2ccccc21
[1]
  Ki: 13400 nM
[2]
  Ka: 0.135 ×10³ /M/min

## O=C(Oc1ccc(-c2ccccc2)cc1)N1c2ccccc2Sc2ccccc21
[4]
  Activity: inactive
[5]
  Activity: 100%
[6]
  Activity: 100%
[7]
  Activity: 100%
[8]
  Activity: 99.5%
[9]
  Activity: 90%
[10]
  Activity: 76%
[11]
  Activity: 99%
[12]
  Activity: 94%
[13]
  Activity: 93%
[14]
  Activity: 58%
[15]
  Activity: 87%
[16]
  Activity: 85%
[17]
  Activity: 85%
[18]
  Activity: 67%
[19]
  Activity: 63%
[20]
  Activity: 88%
[21]
  Activity: 75%
[22]
  Activity: 59%
[23]
  Activity: 74%
[24]
  Activity: 57%
[25]
  Activity: 35%
[26]
  Activity: 51%
[27]
  Activity: 15%
[28]
  Activity: 11%
[29]
  Activity: 46%
[30]
  Activity: 26%
[31]
  Activity: 12%
[2]
  Ka: 910 ×10³ /M/min
